Data published in patent US20160270405A1, “Synergistic Compositions Comprising a Bacillus Subtilis Strain and a Pesticide” (BASF CORPORATION, priority 2013, published 2016).

Legend:
corn = test: Improvement of plant growth in corn: seed treatment, two week growth in seed germination pouches; format: in vivo; conditions: pyraclostrobin 1 g a.i./100 kg seed and/or FB17 1 × 10^6 CFU per seed, two weeks growth
Method: (§1) Pyraclostrobin was applied to corn or wheat seeds as the commercial, liquid seed treatment formulation Stamina® (200 g per litre a.i., BASF Corporation, Research Triangle Park, North Carlolina), whereas Bacillus subtilis FB17 was applied to corn seeds as a SC formulation (about 2×10^10 CFU ml^−1).
Corn or wheat seeds were treated at the BASF Seed Solutions Technology Center (SSTC) in Ames, Iowa. Pyraclostrobin and Bacillus subtilis UD1022 were applied to maize seeds as water-based slurries by using methods consistent with commercial seed treatment applications in a laboratory-scale batch treater. Briefly, 500 g of corn seeds were added to the drum of a laboratory-scale batch treater and 6 ml of prepared slurry (with appropriate amount of pyraclostrobin, Bacillus subtilis FB17, or combination thereof) was applied to the seed as the drum rotated. For 500 g of wheat seeds, 8 ml of slurry was used. Seed was rotated in the drum for 30 seconds following application of the slurry to assure uniform and complete coverage to the seed surface.
Treated seeds were placed in seed germination pouches (Mega International, St. Paul, Minn.) and 20 ml of fertilizer solution that provided 50 ppm nitrogen, 7.5 ppm phosphorus, and 37.5 ppm potassium (derived from calcium nitrate, potassium nitrate, phosphoric acid and adjusted to pH 6.5) was added to each pouch. Seed germination pouches were placed in 25° C. growth chambers with a 16 h photoperiod. Five ml of fertilizer solution was added to seed germination pouches at two day intervals to replenish water lost to evapotranspiration.
Corn or wheat plants were allowed to grow for two weeks. At the conclusion of the two week growth period, plant height and shoot and root dry weights were determined. Plant height was measured in centimeters. Shoot and root tissues were separated and dried in an oven at 68° C. for three days. Shoot and root dry weights were measured in mg using an analytical balance.
(§2) Treatments were arranged in a completely randomized design with ten replications per treatment. Shoot height, shoot dry weight and root dry weight data were expressed as difference (%) relative to the not-treated control to facilitate application of Colby's formula (Colby, 1967) to calculate expected difference (EColby).
EColby=PA+PB−PA*PB/100 • EColby expected difference, expressed in % difference from the not-treated control, when using the mixture of the active compounds A and B at the concentrations a and b • PA difference, expressed as % difference from the not-treated control, when using the active compound A at the concentration a • PB difference, expressed in % difference from the not-treated control, when using the active compound B at the concentration b.

wheat = test: Improvement of plant growth in wheat: seed treatment, two week growth in seed germination pouches; format: in vivo; conditions: pyraclostrobin 1 g a.i./100 kg seed and/or FB17 1 × 10^6 CFU per seed, two weeks growth
Method: as §1
Corn or wheat seeds were treated at the BASF Seed Solutions Technology Center (SSTC) in Ames, Iowa. Pyraclostrobin and Bacillus subtilis UD1022 were applied to maize seeds as water-based slurries by using methods consistent with commercial seed treatment applications in a laboratory-scale batch treater. […]
Corn or wheat plants were allowed to grow for two weeks. At the conclusion of the two week growth period, plant height and shoot and root dry weights were determined. Plant height was measured in centimeters. […] Shoot and root dry weights were measured in mg using an analytical balance.
as §2, with “(EColby). […]” for “(EColby).”

Compound: COC(=O)N(OC)c1ccccc1COc1ccn(-c2ccc(Cl)cc2)n1 [Pyraclostrobin, pyraclostrobin]
- Difference (shoot dry weight) relative to not-treated control (corn): 1.1%
- Difference (shoot height) relative to not-treated control (corn): 3.5%
- Shoot dry weight (corn; dried at 68° C. for three days): 85.0 mg
- Shoot height (corn; mean of 10 measurements): 29.7 cm
- Difference (root dry weight) relative to not-treated control (wheat): 17.4%
- Root dry weight (wheat; dried at 68° C. for three days): 10.1 mg
